Measurements reported in patent publication US20170253607A1, “LONG-ACTING HIV PROTEASE INHIBITOR” (Shionogi & Co., Ltd., priority 2014, published 2017).

target: HIV-1 PR (Human immunodeficiency virus type 1 group M subtype B, UniProt P04585); assay: HIV-protease inhibitory activity assay (FRET peptide substrate); assay type: biochemical; conditions: Test Example 1
How it was run: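 Fluorescence recovery at ex 485/em 535 nm reports cleavage of a quenched FRET peptide (2 μmol/L final) by 0.83 ng enzyme over 60 minutes at room temperature. Buffer was NaAc pH 4.8 with NaCl, EDTA, DTT and Tween 20. IC50 values came from four-parameter logistic regression of % inhibition.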

SMILES | IC50 [nM]
COc1ccc(S(=O)(=O)N(CC(C)C)CC(O)C(Cc2ccc(N(Cc3nccs3)Cc3ccccc3-c3sc4c(c3C(=O)O)CC(C)(C)CC4)cc2)NC(=O)OC2COC3(C)OCCC23)cc1 (stereo not drawn) [Compound I-431] | 3.72
COc1ccc(S(=O)(=O)N(CC(C)C)CC(O)C(Cc2ccc(N(CCCCc3ccccc3)Cc3ccccc3-c3sc4c(c3C(=O)O)CC(C)(C)CC4)cc2)NC(=O)OC2COC3(C)OCCC23)cc1 (stereo not drawn) [Compound I-432] | 8.42
COc1ccc(S(=O)(=O)N(CC(C)C)CC(O)C(Cc2ccc(Nc3ncc(-c4sc5c(c4C(=O)O)CC(C)(C)CC5)cn3)cc2)NC(=O)OC2COC3(C)OCCC23)cc1 (stereo not drawn) [Compound I-433] | 2.49
COc1ccc(S(=O)(=O)N(CC(C)C)CC(O)C(Cc2ccc(NCc3ccc(C(=O)Nc4sc5c(c4C(=O)O)CC(C)(C)CC5)cc3)cc2)NC(=O)OC2COC3(C)OCCC23)cc1 (stereo not drawn) [Compound I-437] | 4.42
COc1ccc(S(=O)(=O)N(CC(C)C)CC(O)C(Cc2ccc(NCc3ccc(C(=O)Nc4sc5c(c4C(=O)O)CC(C)(C)CC5)o3)cc2)NC(=O)OC2COC3(C)OCCC23)cc1 (stereo not drawn) [Compound I-438] | 2.55
COc1ccc(S(=O)(=O)N(CC(C)C)CC(O)C(Cc2ccc(NCc3ccc(CCC(=O)Nc4sc5c(c4C(=O)O)CC(C)(C)CC5)cc3)cc2)NC(=O)OC2COC3(C)OCCC23)cc1 (stereo not drawn) [Compound I-439] | 3.45
COc1ccc(S(=O)(=O)N(CC(C)C)CC(O)C(Cc2ccc(NCc3ccc(C(=O)Nc4sc5c(c4C(=O)O)CC(C)(C)CC5)s3)cc2)NC(=O)OC2COC3(C)OCCC23)cc1 (stereo not drawn) [Compound I-441] | 2.61
COc1ccc(S(=O)(=O)N(CC(C)C)CC(O)C(Cc2ccc(NCc3cnn4ccc(C(=O)Nc5sc6c(c5C(=O)O)CC(C)(C)CC6)nc34)cc2)NC(=O)OC2COC3(C)OCCC23)cc1 (stereo not drawn) [Compound I-442] | 2.95
COc1ccc(S(=O)(=O)N(CC(C)C)CC(O)C(Cc2ccc(NCc3cncc(C(=O)Nc4sc5c(c4C(=O)O)CC(C)(C)CC5)c3)cc2)NC(=O)OC2COC3(C)OCCC23)cc1 (stereo not drawn) [Compound I-443] | 1.88
COc1ccc(S(=O)(=O)N(CC(C)C)CC(O)C(Cc2ccc(NCc3ccc(C=CC(=O)Nc4sc5c(c4C(=O)O)CC(C)(C)CC5)cc3)cc2)NC(=O)OC2COC3(C)OCCC23)cc1 (stereo not drawn) [Compound I-444] | 5.1
COc1ccc(S(=O)(=O)N(CC(C)C)CC(O)C(Cc2ccc(NCc3cc(C(=O)Nc4sc5c(c4C(=O)O)CC(C)(C)CC5)n(C)c3)cc2)NC(=O)OC2COC3(C)OCCC23)cc1 (stereo not drawn) [Compound I-445] | 2.78
COc1ccc(S(=O)(=O)N(CC(C)C)CC(O)C(Cc2ccc(NCc3cc(C(F)(F)F)ccc3-n3nc(C(=O)O)c4c3CCC(C)(C)C4)cc2)NC(=O)OC2COC3(C)OCCC23)cc1 (stereo not drawn) [Compound I-446] | 2.12
COc1ccc(S(=O)(=O)N(CC(C)C)CC(O)C(Cc2ccc(N(C)Cc3cc(C(F)(F)F)ccc3-n3nc(C(=O)O)c4c3CCC(C)(C)C4)cc2)NC(=O)OC2COC3(C)OCCC23)cc1 (stereo not drawn) [Compound I-447] | 2.37
COc1ccc(S(=O)(=O)N(CC(C)C)CC(O)C(Cc2ccc(N(C)Cc3cc(C#N)ccc3-c3sc4c(c3C(=O)O)CC(C)(C)CC4)cc2)NC(=O)OC2COC3(C)OCCC23)cc1 (stereo not drawn) [Compound I-452] | 2.6
COc1ccc(S(=O)(=O)N(CC(C)C)CC(O)C(Cc2ccc(N(Cc3ccccc3-c3sc4c(c3C(=O)O)CC(C)(C)CC4)CC3CCCC3)cc2)NC(=O)OC2COC3(C)OCCC23)cc1 (stereo not drawn) [Compound I-456] | 13.6
CCCCN(Cc1ccccc1-c1sc2c(c1C(=O)O)CC(C)(C)CC2)c1ccc(CC(NC(=O)OC2COC3(C)OCCC23)C(O)CN(CC(C)C)S(=O)(=O)c2ccc(OC)cc2)cc1 (stereo not drawn) [Compound I-457] | 5.63
CCCCCCCCCN(Cc1ccccc1-c1sc2c(c1C(=O)O)CC(C)(C)CC2)c1ccc(CC(NC(=O)OC2COC3(C)OCCC23)C(O)CN(CC(C)C)S(=O)(=O)c2ccc(OC)cc2)cc1 (stereo not drawn) [Compound I-458] | 51

SMILES | IC50 [nM]
COc1ccc(S(=O)(=O)N(CC(C)C)CC(O)C(Cc2ccc(N(CCC(C)(C)C)Cc3ccccc3-c3sc4c(c3C(=O)O)CC(C)(C)CC4)cc2)NC(=O)OC2COC3(C)OCCC23)cc1 (stereo not drawn) [Compound I-459] | 18.4
COc1ccc(S(=O)(=O)N(CC(C)C)CC(O)C(Cc2ccc(N(Cc3ccccc3-c3sc4c(c3C(=O)O)CC(C)(C)CC4)CC3CC3)cc2)NC(=O)OC2COC3(C)OCCC23)cc1 (stereo not drawn) [Compound I-460] | 3.58
COc1ccc(S(=O)(=O)N(CC(C)C)CC(O)C(Cc2ccc(N(CCC(C)C)Cc3ccccc3-c3sc4c(c3C(=O)O)CC(C)(C)CC4)cc2)NC(=O)OC2COC3(C)OCCC23)cc1 (stereo not drawn) [Compound I-461] | 7.09
CCCN(Cc1ccccc1-c1sc2c(c1C(=O)O)CC(C)(C)CC2)c1ccc(CC(NC(=O)OC2COC3(C)OCCC23)C(O)CN(CC(C)C)S(=O)(=O)c2ccc(OC)cc2)cc1 (stereo not drawn) [Compound I-462] | 3.33
COc1ccc(S(=O)(=O)N(CC(C)C)CC(O)C(Cc2ccc(N(Cc3ccccc3-c3sc4c(c3C(=O)O)CC(C)(C)CC4)CC3CCC3)cc2)NC(=O)OC2COC3(C)OCCC23)cc1 (stereo not drawn) [Compound I-463] | 5.13
COc1ccc(S(=O)(=O)N(CC(C)C)CC(O)C(Cc2ccc(N(C)Cc3ccc(OC)c(-c4sc5c(c4C(=O)O)CC(C)(C)CC5)c3)cc2)NC(=O)OC2COC3(C)OCCC23)cc1 (stereo not drawn) [Compound I-464] | 2.52
COc1ccc(S(=O)(=O)N(CC(C)C)CC(O)C(Cc2ccc(Nc3ccc(-c4sc5c(c4C(=O)O)CC(C)(C)CC5)cc3)cc2)NC(=O)OC2COC3(C)OCCC23)cc1 (stereo not drawn) [Compound I-468] | 5.6
COc1ccc(S(=O)(=O)N(CC(C)C)CC(O)C(Cc2ccc(N(C)c3ccc(-c4sc5c(c4C(=O)O)CC(C)(C)CC5)cc3)cc2)NC(=O)OC2COC3(C)OCCC23)cc1 (stereo not drawn) [Compound I-469] | 5.16
COc1ccc(S(=O)(=O)N(CC(C)C)CC(O)C(Cc2ccc(N(C)CC3CCCC3c3sc4c(c3C(=O)O)CC(C)(C)CC4)cc2)NC(=O)OC2COC3(C)OCCC23)cc1 (stereo not drawn) [Compound I-470] | 2.67
COc1ccc(S(=O)(=O)N(CC2CC2)CC(O)C(Cc2ccc(NCc3ccccc3-c3sc4c(c3C(=O)O)CC(C)(C)CC4)cc2)NC(=O)OC2COC3(C)OCCC23)cc1 (stereo not drawn) [Compound I-472] | 2.27
CC(C)CN(CC(O)C(Cc1ccc(NCc2ccccc2-c2sc3c(c2C(=O)O)CC(C)(C)CC3)cc1)NC(=O)OC1COC2(C)OCCC12)S(=O)(=O)c1ccc(N)cc1 (stereo not drawn) [Compound I-476] | 1.99
COc1ccc(S(=O)(=O)N(CC(C)C)CC(O)C(Cc2ccc(N(C)Cc3ncccc3-c3ccccc3-c3sc4c(c3C(=O)O)CC(C)(C)CC4)cc2)NC(=O)OC2COC3(C)OCCC23)cc1 (stereo not drawn) [Compound I-477] | 2
COc1ccc(S(=O)(=O)N(CC(C)C)CC(O)C(Cc2ccc(Nc3cccc(-c4sc5c(c4C(=O)O)CC(C)(C)CC5)c3)cc2)NC(=O)OC2COC3(C)OCCC23)cc1 (stereo not drawn) [Compound I-478] | 2.25
COc1ccc(S(=O)(=O)N(CC(C)C)CC(O)C(Cc2ccc(N(C)c3cccc(-c4sc5c(c4C(=O)O)CC(C)(C)CC5)c3)cc2)NC(=O)OC2COC3(C)OCCC23)cc1 (stereo not drawn) [Compound I-479] | 2.49
CC(C)CN(CC(O)C(Cc1ccc(NCc2ccccc2-c2sc3c(c2C(=O)O)CC(C)(C)CC3)cc1)NC(=O)OC1COC2(C)OCCC12)S(=O)(=O)c1ccc2nc(O)sc2c1 (stereo not drawn) [Compound I-482] | 2.27
COc1ccc(S(=O)(=O)N(CC(C)C)CC(O)C(Cc2ccc(N(Cc3ccccn3)Cc3ccccc3-c3sc4c(c3C(=O)O)CC(C)(C)CC4)cc2)NC(=O)OC2COC3(C)OCCC23)cc1 (stereo not drawn) [Compound I-486] | 4.59
